Experimental data from patent US12628856B2, “Nutritional composition having lipophilic compounds with improved solubility and bioavailability” (Abbott Laboratories, priority 2013, dated 2026).

Experiments:
Type in all cases: physicochemical
[1] = Bound lipophile index (SEC peak area ratio 280 nm/214 nm); details: Example 35 model systems
Description: The size exclusion chromatography (SEC) system used in the following Examples is as follows: Column: Superdex Peptide 10/300 GL, GE Healthcare P/N 17-5176-01; Mobile Phase: 700 mL Milli-Q Plus water, 300 mL acetonitrile; 1.0 mL trifluoroacetic acid; Flow Rate: 0.4 mL/minute; Temperature: ambient (˜21° C.); Detection: UV light at 214 nm, 280 nm; visible light at 476 nm; Injection: 10 μL; Run Time: 70 minutes; Sample Preparation: dilute 0.6-1.1 g to 10 mL with Mobile Phase; Calibration: by 6 purified reference proteins, 14.2-160 kD.
The bound lipophile index is determined as follows: a non-specific indicator of lipophilic nutrients (including lutein and any combination of other oil soluble vitamins) in the high MW protein peak (described above). […]
A study was conducted to evaluate the effect of relative centrifugal force (RCF) on analyzing the high molecular weight lutein assembly in the aqueous phase. […] The compositions were then assessed for high molecular weight lutein assembly and the presence of protein >137 kD as done above, as well as bound lipophile index. Bound lipophile index, a relative marker for of lipophilic nutrients in the high molecular weight assembly, was determined as the peak ratio, 280 nm/214 nm for protein >137 kD.

[2] = Distribution of lutein and MDG in cream, aqueous and pellet layers after 100,000×g (Example 58); details: 100,000×g for 1 hour; wt % of the nutritional composition
Description: A study was conducted to investigate the distribution of lutein and MDG within the nutritional compositions. Sample were prepared using homogenization at 150/20 bar, and then centrifuged at 100,000×g for 1 hour. The different layers (e.g., cream, aqueous, and pellet) were then analyzed for the presence of lutein and MDG.

[3] = Centrifugation/ultrafiltration analysis of lutein and MDG distribution (Example 60); details: centrifugation at 100,000×g
Description: A study was conducted to further investigate the distribution of lutein and MDG within the nutritional composition. Samples included MDG/lutein/water; MDG/lutein/NFDM/water; MDG/lutein/WPC/water; and MDG/water.
The premixes were provided as follows: in samples that contained lutein, lutein was heated for 2 h at 50° C. with shaking. […] In samples that contained protein, non-fat dried milk was added to water (50-60° C.) with agitation and allowed to hydrate for approximately 10 min.
The samples were prepared as follows: for solution 1, water was heated to 50-60° C., an lutein in GMO-40 blend and turrax (30 sec 10000 rpm) was added; for solution 2, NFDM was placed in water solution heated to 50-60° C., and lutein was added in GMO-40 blend and turrax (30 sec 10000 rpm); for solution 3, water was heated to 50-60° C., and GMO-40 blend and turrax (30 sec 10000 rpm) was added. The solutions are listed in the table below as X.1, wherein 1 is the solution.
Samples were formulated as detailed above, and then characterized by ultrafiltration with various membranes, as well as ultracentrifuged at various times and speed (e.g., 100,000×g, 4,500×g, and 1,000×g). The details of the different centrifugation/filtration method are listed below. […]

SMILES | bound lipophile index when choline was present [1] | present in the aqueous phase following centrifugation [2] | lutein in the aqueous phase ([3]; samples containing only lutein and MDG) | lutein in the aqueous phase ([3]; samples containing protein)
C[N+](C)(C)CCO [choline] | decreased | – | – | –
CC1=C[C@H](O)CC(C)(C)[C@H]1/C=C/C(C)=C/C=C/C(C)=C/C=C/C=C(C)/C=C/C=C(C)/C=C/C1=C(C)C[C@@H](O)CC1(C)C [lutein] | – | approximately 4 wt % | negligible | only found in the aqueous phase of samples containing protein
